Assay results reported in EP2557075A1, “New triazene compounds for treating cancer” (Trin Therapeutics GmbH, priority 2011, dated 2013).
Where two headings read alike, the source gives them in different places.

Columns and labels:
MDA-MB231 = test: IC50 of triazenes in MDA-MB231 cell line (Experiment 3); assay type: cell-based; settings: Homo sapiens, MDA-MB-231; IC50 für die MDA-MB231 gemäß Experiment 3; used as incubation concentration for PBC
Text: Die nachfolgenden Experimente 3 und 4 zeigen, dass die erfindungsgemäßen neuen Triazenverbindungen eine vergleichbare Anti-Tumorwirkung (IC50) in zahlreichen Krebszelllinien wie der HepG2 (Leber), HCT8 (Darm), DU-145 (Prostata), MCF-7 und MDA-MB-231 (Brust) und MiaPaca-2 (Bauchspeicheldrüse) bei bis zu 100fach niedrigeren Konzentrationen zeigen als vergleichbare Triazene wie DTIC, TMZ oder Substanzen wie sie in der WO 2009/004060 und der DE 1 7931 1 5 beschrieben sind.
(§1) Verschiedene Triazene wie erfindungsgemäße Verbindungen nach Beispiel 1, DTIC, TMZ sowie Verbindungen nach Präparat 2 und 5 (entsprechend Verbindungen nach Präparat 2 und Beispiel 2a jeweils der WO 2009/004060) sowie Verbindungen nach Beispiel 33 der DE1793115 wurden in DMSO bzw. Wasser gelöst.
(§2) Periphäre Blutzellen (PBC) werden jeweils mit der IC50 für die MDA-MB231 gemäß Experiment 3 der entsprechenden Substanzen inkubiert. Es wird gezeigt, dass die erfindungsgemäße Verbindung nach Beispiel 1 nicht mehr DNA-Schädigungen in den PBC erzeugt als eine Negativkontrolle, […]

HL-60 = test: Growth inhibition (IC50) in leukaemic HL-60 cells (Experiment 7); assay type: cell-based; settings: for IC50: Homo sapiens, HL-60, 24 Stunden
Text: Hämatologische Zellen (CEM, HL-60) wurden für 24 Stunden mit unterschiedlichen Dosen verschiedener Triazenverbindungen inkubiert, um die IC50 zu bestimmen.

Mammakarzinome = test: Benzidine-induced mammary carcinoma in female rats (Experiment 6); assay type: in vivo, Ratten; settings: s.c. or peroral, observation to day 30, percent median vs. start of treatment
Description: Die Mammakarzinome werden durch subkutane Injektionen von in physiologischer Kochsalz-Lösung suspendiertem Benzidin an weiblichen Ratten induziert. Je nach Art des Rattenstammes sind dazu unterschiedlich hohe Gesamtdosen und verschieden lange Induktionszeiten erforderlich. Bei zwei untersuchten Wistar-Stämmen (Züchter: Spiegel bzw. Winkelmann) erscheinen die Tumoren nach einer Induktionszeit von 150-330 Tagen und einer Gesamtdosis von 1000 bis 1225mg/kg Benzidin subkutan. Bei zwei verschiedenen Sprague-Dawley-Stämmen (Züchter: Mus Rattus AG bzw. Winkelmann) genügt schon eine einzige Benzidin-Injektion von 150mg/kg s.c., um nach 60-180 Tagen die Mammakarzinome entstehen zu lassen. Die Mammakarzinome entwickeln sich fast immer multipel. Acht oder mehr Tumoren pro Tier sind keine Seltenheit. Die Tumoren wachsen ziemlich schnell und führen etwa 30 bis 1 20 Tage nach Tastbarwerden zum Tode der Ratten. Nach 30 Tagen ist eine Tumorgröße von 6g zu erwarten (Figur 1 aus DE 01 7931 15).
Die Vergleichssubstanzen wurden für 30 Tage täglich s.c, oder peroral in Dosierungen zwischen 50-200mg/kg verabreicht. Die Verbindung nach Beispiel 1 wurde s.c. über die ersten 7 Tage in Dosierungen zwischen 20 und 100mg/kg, so dann in Dosierungen von 200 bis 1000mg/kg (in Stufen von 100mg/kg) für weitere 10 Tage appliziert. Bis zum Tag 30 erfolgte keine weitere Behandlung. […]

[1] = tested on: periphere Blutzellen (PBC); test: Cell damage (apoptosis rate, CaspACE assay, flow cytometry) in peripheral blood cells (Experiment 5); assay type: cell-based
Text: Um die therapeutische Breite der neuen Substanzen abschätzen zu können, wurden periphere Blutzellen (PBC) und hämatologische Zellen (Nalm-6; CEM und U-937) für 24 Stunden mit unterschiedlichen Dosen verschiedener Triazenverbindungen bzw. Doxorubicin als positive Kontrolle für die hämatologischen Zelllinien inkubiert. Das Maß der Zellschädigung (Apoptoserate) wurde mittels CaspACE™ Assay (am Durchflusszytometer) bestimmt.
Verschiedene Triazene wie erfindungsgemäße Verbindungen nach Beispiel 1, TMZ sowie Verbindungen nach Präparat 2 und 5 (entsprechend Verbindungen nach Präparat 2 und Beispiel 2a jeweils der WO 2009/004060) wurden in DMSO bzw. Wasser entsprechend den Angaben in Abbildung 22 gelöst.
as §2

[2] = tested on: drei Pankreaskrebszelllinien; test: IC50 of triazenes in three pancreatic cancer cell lines (Experiment 4); assay type: cell-based
Text: as §1, with “nach Beispiel 2 und 33 der” for “nach Beispiel 33 der”

CN(C)N=Nc1ccc(C(=O)c2ccc(O)cc2)cc1 [Beispiel 1]
IC50 (MDA-MB231): 27.5 µM
Wachstumshemmung in x-fach niedrigerer Konzentration (HL-60; CEM und HL-60, vs. Triazenverbindungen aus WO2009/004060 und Beispiel 33 aus DE 1793115): ≤ 100 -fach
IC50 (HL-60; mean of Exp. 1-5, read-out: IC50 Mittelwert): 16.3 µM
IC50 (HL-60; read-out: IC50 Exp. 1): 12.6 µM
IC50 (HL-60; read-out: IC50 Exp. 2): 15.2 µM
IC50 (HL-60; read-out: IC50 Exp. 3): 24.2 µM
IC50 (HL-60; read-out: IC50 Exp. 4): 16 µM
IC50 (HL-60; read-out: IC50 Exp. 5): 13.4 µM
Entwicklung der Tumorgewichte (Mammakarzinome): zu jedem Beobachtungszeitpunkt langsamer als unter einer Therapie mit den verwendeten Vergleichssubstanzen
Zellschädigung (Apoptoserate) vs. Negativkontrolle ([1]; PBC, 24 stündige Inkubation): nicht mehr geschädigt als durch eine Negativkontrolle
% Zellen in Apoptose ([1]; Versuch 1 Lymphozyten, 24 Stunden incubation at the IC50 for MDA-MB231): 8,120%
antitumorale Aktivität (IC50) compared with Vergleichssubstanzen [2]: deutliche Überlegenheit
